Structures can show the parent of a compound that is named as a salt.
system: SB.msgc-1; test: AC50 for growth inhibition (viability) (log10 M); higher = less potent; conditions: SB.msgc-1 (sporadic gastric cancer)
In short: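 After 48 h with compound, plates received CellTiter-Glo for 30 min at room temperature and were read for luminescence on a ViewLux. The cells were patient-derived gastric cancer lines of hereditary or sporadic origin, plated at 500 cells in 5 μL medium per 1536 well and pinned with 23 nL compound in DMSO, at 11 threefold dilutions from a final 46 μM. For the log half-maximal activity concentration, DMSO-normalised viability was fitted with four parameters and only high-quality curve classes were kept.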

Point of comparison: `Nc1ncnc2c1ncn2[C@@H]1O[C@H](CO)C[C@H]1O` [Cordycepin], “AC50 for growth inhibition (log10 M)” value -4.73. Against it:
- C[C@]\12CC[C@H](O)CC1=C/C[C@@H]3[C@@H]2CC[C@@]\4(C)[C@H]3C\C=C4C5=CN=CC=C5 [Abiraterone] — lower, -5.19
- CN(C)CCOc1ccc(-c2nc(-c3ccncc3)c(-c3ccc4c(c3)CC/C4=N\O)[nH]2)cc1 — within 0.2 log units, -4.68
- CC/1=C(/C(CC(=O)N1)C2=CC=C(C=C2)C(F)(F)F)C(=O)NC3=C(F)C=C4[NH]N=CC4=C3 (stereo not drawn) — lower, -5.03
- NC/1=N/C(=O)N/C=C1F [Flucytosine] — within 0.2 log units, -4.88
- CC1(C)[C@H](C(=O)O)N2C(=O)C[C@H]2[S+]1(=O)[O-] [Sulbactam] — within 0.2 log units, -4.83
- COc1ccc(-c2c(-c3ccc(O)cc3O)n[nH]c2C)cc1 [PDHK RIKEN] — higher, -4.37
- COC[C@H]1OC(=O)C2=COC3=C2[C@@]1(C)\C4=C(C5CCC(=O)[C@@]5(C)C[C@H]4OC(C)=O)/C3=O (stereo partly drawn) [Wortmannin] — within 0.2 log units, -4.83
- COc1ccc2cc1Oc1ccc(cc1)C[C@H]1c3cc(c(OC)cc3CCN1C)Oc1c(OC)c(OC)cc3c1[C@H](C2)N(C)CC3 [Tetrandrine] — the same, -4.73
- Oc1nc(-c2ccc(C(F)(F)F)cc2)nc2c1CSCC2 [NVP-XAV-939] — within 0.2 log units, -4.68
- CCc1c(O)cc(O)c(C(=O)c2ccc(OCCN3CCOCC3)c(OC)c2)c1CC(=O)N(CCOC)CCOC [KW-2478] — lower, -6.58
- Clc1ccc(CCC(Cn2ccnc2)Sc2c(Cl)cccc2Cl)cc1 (stereo not drawn) [Butoconazole nitrate] — within 0.2 log units, -4.68
- Cc1c(-c2cccc3c(CCCOc4cccc5ccccc45)c(C(=O)O)n(Cc4cccnc4)c23)c(COc2ccc(N3CCN([S+](=O)([O-])N(C)C)CC3)cc2)nn1C — within 0.2 log units, -4.63
- N#CC(c1ccnc(NCCc2cccnc2)n1)c1nc2ccccc2s1 (stereo not drawn) [JNK Inhibitor V] — the same, -4.73
- COc1ccc(COc2cc3oc(=O)c4cc(C(C)O)ccc4c3cc2OC)cc1 (stereo not drawn) — within 0.2 log units, -4.63
- COC(=O)Nc1nc2ccc([S+]([O-])c3ccccc3)cc2[nH]1 (stereo not drawn) [Oxfendazole] — within 0.2 log units, -4.63
- O=C(O)c1cccc(-c2noc(-c3ccccc3F)n2)c1 [PTC-124] — within 0.2 log units, -4.83
- CN(C)CCCC1(c2ccc(F)cc2)OCc2cc(C#N)ccc21 (stereo not drawn) [Citalopram hydrobromide] — within 0.2 log units, -4.83
- CN1CCN(c2cccc(Nc3nc4c(-c5ccc([S+](C)(=O)[O-])cc5)cccn4n3)c2)CC1 — within 0.2 log units, -4.78
- CCOC(=O)C(C)OC1=CC=CC2=C1\C=C/N(CC(=O)NC3=CC=C4OCCOC4=C3)C2=O (stereo not drawn) — lower, -5.18
- CCCCC(F)(F)[C@@]1(O)CC[C@H]2[C@@H](CC(=O)[C@@H]2CCCCCCC(=O)O)O1 [Lubiprostone] — within 0.2 log units, -4.78
- Cc1ccc([S+](=O)([O-])Nc2nc3ccccc3nc2Nc2ccc3nsnc3c2)cc1 [XL-147] — lower, -6.19
- CN(CCOc1ccc(CC2SC(=O)NC2=O)cc1)c1ccccn1 (stereo not drawn) [Rosiglitazone] — lower, -5.18
- Clc1ccccc1C(c1ccccc1)(c1ccccc1)n1ccnc1 [Clotrimazole] — within 0.2 log units, -4.83
- C=C1C(=O)OC(CCCCCCCC)C1C(=O)O (stereo not drawn) [C-75] — within 0.2 log units, -4.58
- CCOC(=O)c1ncn2c1CN(C)C(=O)c1cc(F)ccc1-2 [Flumazenil] — within 0.2 log units, -4.63
- C/C(=C\C(=O)Nc1ccccc1C(=O)O)c1ccc2ccccc2c1 [BIBR 1532] — within 0.2 log units, -4.78
- CCCCC[C@H](O)/C=C/[C@H]1[C@H](O)CC(=O)[C@@H]1C/C=C\CCCC(=O)O [Prostaglandin E2] — lower, -5.18
- COc1cc([C@H]2Oc3cc([C@H]4Oc5cc(O)cc(O)c5C(=O)[C@@H]4O)ccc3O[C@@H]2CO)ccc1O [Silybin] — within 0.2 log units, -4.78
- CCCCCCCCCCCC(CC1OC(=O)C1CCCCCC)OC(=O)C(CC(C)C)NC=O (stereo not drawn) [Orlistat] — within 0.2 log units, -4.78
- O=C(O)c1ccc2c(c1)nc(Nc1cccc(Cl)c1)c1ccncc12 [Silmitasertib] — lower, -4.93
- NC(=O)N/N=C/c1ccc([N+](=O)[O-])o1 [Nitrofurazone] — within 0.2 log units, -4.68
- Cc1cccc(-c2nn(C(=S)Nc3ccccc3)cc2-c2ccnc3ccccc23)n1 [A 83-01] — the same, -4.73
- Cc1cnc(Nc2cccc(CN3CCOCC3)c2)nc1Nc1cccc([S+](=O)([O-])NC(C)(C)C)c1 [TG-89] — within 0.2 log units, -4.78
- Cl.Cl.Fc1ccc(C(OCCN2CCN(CCCc3ccccc3)CC2)c2ccc(F)cc2)cc1 [Vanoxeamine] — the same, -4.73
- NC(=O)Nc1cc(-c2cccc(F)c2)sc1C(=O)N[C@H]1CCCNC1 [AZD-7762] — lower, -6.73
- C[C@H](NCc1ccc2c(c1)nc(NC(=O)c1ccc(-c3cn[nH]c3)s1)n2CCc1ccccc1)C(C)(C)C — lower, -6.03
- C[S+]([O-])c1ccc(-c2nc(-c3ccc(F)cc3)c(-c3ccncc3)[nH]2)cc1 (stereo not drawn) — within 0.2 log units, -4.62
- O=C1Cc2cc(CCN3CCN(c4nsc5ccccc45)CC3)c(Cl)cc2N1 [Ziprasidone hydrochloride] — within 0.2 log units, -4.63
- CC(C)(C)OC(=O)CN(Cc1ccc(Cl)cc1)Cc1ccc([N+](=O)[O-])s1 [GSK-4112] — within 0.2 log units, -4.68
- CCC[C@H](Nc1nc(-c2ccc(NC(=O)NCC)c(OC)c2)ncc1C)c1cccnc1 [Lexibulin hydrochloride] — lower, -7.83
- C[C@]12CCC(=O)C=C1CC[C@@H]1[C@@H]2CC[C@@]2(C)[C@H]1CC[C@]2(C)O [Methyltestosterone] — higher, -4.42
- CCC[S+](=O)([O-])Nc1ccc(F)c(C(=O)c2c[nH]c3ncc(-c4ccc(Cl)cc4)cc23)c1F [Vemurafenib] — within 0.2 log units, -4.78
- Nc1nc(Nc2ccc([S+](N)(=O)[O-])cc2)nn1C(=O)c1c(F)cccc1F — lower, -5.33
- COc1ccc(CCC(=O)Nc2nc3ccc(Cl)cc3s2)cc1OC — within 0.2 log units, -4.63
- CO[C@H]1O[C@@H]2O[C@@]3(C)CC[C@H]4[C@H](C)CC[C@@H]([C@H]1C)[C@@]24OO3 [Artemether] — lower, -5.98
- CC(C)c1c(C(=O)Nc2ccccc2)c(-c2ccccc2)c(-c2ccc(F)cc2)n1CC[C@@H](O)C[C@@H](O)CC(=O)[O-] [Atorvastatin calcium] — within 0.2 log units, -4.68
- O=C1NC(=O)/C(=C/c2ccc3c(c2)OC(F)(F)O3)S1 — within 0.2 log units, -4.83
- Clc1ccc(-c2nc3sccn3c2/C=N/OCc2ccc(Cl)c(Cl)c2)cc1 [CITCO] — the same, -4.73
- O=C(O)c1ccc(-n2nc(-c3ccccc3O)nc2-c2ccccc2O)cc1 [Deferasirox] — lower, -4.93
- O=C(NOCC(O)CO)c1cc(Br)c(F)c(F)c1Nc1ccc(I)cc1F (stereo not drawn) — lower, -5.88
- CC[C@@]1(O)C(=O)OC\C2=C1\C=C3/N(CC4=CC5=C(C=CC(=C5CN(C)C)O)N=C34)C2=O [Topotecan hydrochloride] — lower, -6.73
- Cc1cccc(CN2CCN(C(c3ccccc3)c3ccc(Cl)cc3)CC2)c1 (stereo not drawn) [Meclizine hydrochloride] — within 0.2 log units, -4.68
- CCC[S+]([O-])c1ccc2[nH]c(NC(=O)OC)nc2c1 (stereo not drawn) [Albendazole Oxide] — within 0.2 log units, -4.68
- Cc1nc(NC(=O)N2CCC[C@H]2C(N)=O)sc1-c1ccnc(C(C)(C)C(F)(F)F)c1 [BYL-719] — within 0.2 log units, -4.88
- CC1(C)CCC(C)(C)c2cc(NC(=O)c3ccc(C(=O)O)cc3)ccc21 [Tamibarotene] — lower, -5.38
- CN(c1nccc(=O)[nH]1)C1CCN(c2nc3ccccc3n2Cc2ccc(F)cc2)CC1 [Mizolastine] — higher, -4.53
- S=C1N\C=N/C2=C1[NH]C=N2 [6-mercaptopurine] — lower, -5.63
- O=C([O-])C[C@H](O)C[C@H](O)/C=C/c1c(C2CC2)nc2ccccc2c1-c1ccc(F)cc1 [Pitavastatin calcium] — lower, -5.03
- CN(C)[C@H]\1[C@@H]2C[C@H]3C(=C(O)\[C@]2(O)C(=O)\C(=C1O)C(N)=O)/C(=O)C4=C(O)C=CC=C4[C@@]3(C)O [Tetracycline hydrochloride] — lower, -5.18
- Cc1ncc(-c2ccnc(Nc3ccc([S+](C)(=O)[O-])cc3)n2)n1C(C)C [AZD-5438] — lower, -5.78
- Cc1ccnc(N[S+](=O)([O-])c2ccc(NC(=O)Nc3ccc([S+](=O)([O-])Nc4nccc(C)n4)cc3)cc2)n1 — within 0.2 log units, -4.68
- CNC(=O)C1=CC=C(C)C(=C1)N2C(=C/C(=C(/Br)C2=O)OCC3=C(F)C=C(F)C=C3)\C — lower, -4.98

From the supplement of paper PMC5412046
